Source: patent publication US4120953A, “Novel 2,2', 2"-[s-phenenyltris(sulfonylimino)tris]-[2-deoxy-α-D-glucopyranose] , dodecakis (H-sulfate) compounds and their salts” (American Cyanamid Company, priority 1977, dated 1978)
Where a name gives a salt, the structure may show the parent alone.

Experiments:
[1] = system: shunt pathway activated by cobra venom factor; assay: Test, Code 036 (C-Shunt inhibitor); assay type: cell-based; conditions: serial two-fold dilution assay; lysis of fragile human erythrocytes in autologous serum
activated human C1 = activated human C1 (Homo sapiens, UniProt P09871); assay: Test, Code 026 (C1 inhibitor); assay type: biochemical; conditions: serial two-fold dilution assay; higher well numbers indicate higher activity; protection of human C2 from C1 and C4
Procedure: (§1) This test measures the ability of activated human C1 to destroy fluid phase human C2 in the presence of C4 and appropriate dilutions of the test compound. An active inhibitor protects C2 from C1 and C4; (ii) Test, Code 035 (C3-C9 inhibitor) - This test determines the ability of the late components of human complement (C3-C9) to lyse EAC 142 in the presence of appropriate dilutions of the test compound. […] The lesion is measured in terms of diameter, edema and hemorrhage and the extent to which a combined index of these is inhibited by prior intraperitoneal injection of the test compound at […] is then reported, unless otherwise stated; (v) Forssman Shock Test -- Lethal shock is produced in guinea pigs by an i.v. injection of anti-Forssman antiserum and the harmonic mean death time of treated guinea pigs is compared with that of simultaneous controls; (vi) Complement Level Reduction Test -- In this test, the above dosed guinea pigs, or others, are bled for serum and the complement level is determined in undiluted serum by the capillary tube method of U.S. Pat. No. 3,876,376 and compared to undosed control guinea pigs; and (vii) Cap 50 Test -- Here, appropriate amounts of the test compound are added to a pool of guinea pig serum in vitro, after which the undiluted serum capillary tube assay referred to above is run. […]

[2] = system: late components of human complement (C3-C9); assay: Test, Code 035 (C3-C9 inhibitor); assay type: biochemical; set-up: key: N = negative; conditions: serial two-fold dilution assay; protection of EAC 142 from lysis by human C3-C9
Procedure: as §1

## O=S(=O)(O)OC[C@H]1O[C@H](OS(=O)(=O)O)[C@H](NS(=O)(=O)c2cc(S(=O)(=O)N[C@H]3[C@@H](OS(=O)(=O)O)O[C@H](COS(=O)(=O)O)[C@@H](OS(=O)(=O)O)[C@@H]3OS(=O)(=O)O)cc(S(=O)(=O)N[C@H]3[C@@H](OS(=O)(=O)O)O[C@H](COS(=O)(=O)O)[C@@H](OS(=O)(=O)O)[C@@H]3OS(=O)(=O)O)c2)[C@@H](OS(=O)(=O)O)[C@@H]1OS(=O)(=O)O [2,2',2"-[ s-Phenenyltris(sulfonylimino)]-tris[2-deoxy-α-D-gl] [2,2',2"-[s-Phenenyltris(sulfonylimino)]tris[2-deoxy-α-D-glucopyranose], dodecakis (H-sulfate) dodecasalt with trimethylamine]
[1]
  In Vitro Activity Shunt Inhibition 036 Wells: +2 Wells

## O=S(=O)(O)OC[C@H]1O[C@H](OS(=O)(=O)O)[C@H](NS(=O)(=O)c2cc(S(=O)(=O)N[C@H]3[C@@H](OS(=O)(=O)O)O[C@H](COS(=O)(=O)O)[C@@H](OS(=O)(=O)O)[C@@H]3OS(=O)(=O)O)cc(S(=O)(=O)N[C@H]3[C@@H](OS(=O)(=O)O)O[C@H](COS(=O)(=O)O)[C@@H](OS(=O)(=O)O)[C@@H]3OS(=O)(=O)O)c2)[C@@H](OS(=O)(=O)O)[C@@H]1OS(=O)(=O)O [2,2',2"-[s-Phenenyltris(sulfonylimino)]-tris[2-deoxy-α-D-glu] [2,2',2"-[s-Phenenyltris(sulfonylimino)]tris[2-deoxy-α-D-glucopyranose], dodecakis (H-sulfate) dodecasodium salt]
[1]
  In Vitro Activity Shunt Inhibition 036 Wells: +1 Wells

## O=S(=O)(O)OC[C@H]1O[C@H](OS(=O)(=O)O)[C@H](NS(=O)(=O)c2cc(S(=O)(=O)N[C@H]3[C@@H](OS(=O)(=O)O)O[C@H](COS(=O)(=O)O)[C@@H](OS(=O)(=O)O)[C@@H]3OS(=O)(=O)O)cc(S(=O)(=O)N[C@H]3[C@@H](OS(=O)(=O)O)O[C@H](COS(=O)(=O)O)[C@@H](OS(=O)(=O)O)[C@@H]3OS(=O)(=O)O)c2)[C@@H](OS(=O)(=O)O)[C@@H]1OS(=O)(=O)O [2,2',2"-[s-Phenenyltris(sulfonylimino)]tris[2-deoxy-α-D-glucopyranose], dodecakis (H-sulfate) dodecasalt with trimethylamine]
Activated human C1
  In Vitro Activity C1 026 Wells: +7 Wells
[2]
  In Vitro Activity C-Late 035 Wells: N
